Laboratory results published in patent US20120077676A1, “Antifungal 1,2,4-Triazolyl Derivatives Having a 5-Sulfur Substituent” (BASF SE, priority 2009, published 2012).

Experiments:
Phakopsora pachyrhizi = assay: Curative control of soy bean rust on soy beans, green house test; type: in vivo, Phakopsora pachyrhizi on soy bean seedlings; settings: 300 ppm, curative spray after inoculation; assessed after 14 days; untreated plants 90% infected
Method: (§1) The spray solutions were prepared in several steps: A mixture of acetone and/or dimethylsulfoxide and the wetting agent/emulsifier Wettol, which is based on ethoxylated alkylphenoles, in a relation (volume) solvent-emulsifier of 99 to 1 was added to 25 mg of the compound to give a total of 10 ml. Water was then added to total volume of 100 ml. This stock solution was diluted with the described solvent-emulsifier-water mixture to the given concentration.
Leaves of pot-grown soy bean seedlings were inoculated with spores of Phakopsora pachyrhizi. To ensure the success of the artificial inoculation, the plants were transferred to a humid chamber with a relative humidity of about 95% and 20 to 24° C. for 24 h. The next day the plants were cultivated for 2 days in a greenhouse chamber at 23-27° C. and a relative humidity between 60 and 80%. Then the plants were sprayed to run-off with an aqueous suspension, containing the concentration of active ingredient as described below. The plants were allowed to air-dry. Then the trial plants were cultivated for 14 days in a greenhouse chamber at 23-27° C. and a relative humidity between 60 and 80%. The extent of fungal attack on the leaves was visually assessed as % diseased leaf area.

Puccinia recondite = assay: Preventative control of brown rust on wheat, green house test; type: in vivo, Puccinia recondite on wheat seedlings; settings: 300 ppm, preventative spray one day before inoculation; assessed after 6 days in greenhouse; untreated plants 80% infected
Method: as §1
The first two developed leaves of pot-grown wheat seedling were sprayed to run-off with an aqueous suspension, containing the concentration of active ingredient or their mixture as described below. The next day the plants were inoculated with spores of Puccinia recondite. To ensure the success the artificial inoculation, the plants were transferred to a humid chamber without light and a relative humidity of 95 to 99% and 20 to 24° C. for 24 h. Then the trial plants were cultivated for 6 days in a greenhouse chamber at 20-24° C. and a relative humidity between 65 and 70%. The extent of fungal attack on the leaves was visually assessed as % diseased leaf area.

Botrytis cinerea = assay: Activity against the grey mold Botrytis cinerea in the microtiterplate test (Botrci); type: cell-based; settings: 31 ppm active compound; absorption at 405 nm 7 days after inoculation; active compound-free control = 100%
Method: The active substances were formulated separately as a stock solution in dimethyl sulfoxide (DMSO) at a concentration of 10 000 ppm. The stock solutions were mixed according to the ratio, pipetted onto a micro titer plate (MTP) and diluted with water to the concentration given below. A spore suspension of Botrytis cinerea in an aqueous biomalt solution was then added. The plates were placed in a water vapor-saturated chamber at a temperature of 18° C. Using an absorption photometer, the MTPs were measured at 405 nm 7 days after the inoculation. The measured parameters were compared to the growth of the active compound-free control variant (100%) and the fungus-free and active compound-free blank value to determine the relative growth in % of the pathogens in the respective active compounds.

Row | Structure (SMILES) | infection (% diseased leaf area) (Phakopsora pachyrhizi) | infection (% diseased leaf area) (Puccinia recondite) | relative growth in % of the pathogen (Botrytis cinerea)
1 | CC(C1CC1)C(O)(Cn1ncnc1S)c1ccc(F)c(F)c1 (stereo not shown) [I.A.8, 2-(3,4-Difluoro-phenyl)-3-cyclopropyl-1-(5-mercapto-[1,2,4]triazol-1-yl)-butan-2-ol] | 0% | 20% | –
2 | CC(C1CCCCC1)C(O)(Cn1ncnc1S)c1ccc(Cl)cc1 (stereo not shown) [I.A.3, 2-(4-Chloro-phenyl)-3-cyclohexyl-1-(5-mercapto-[1,2,4]triazol-1-yl)-butan-2-ol] | 0% | 20% | 0%
3 | CC(C1CCCC1)C(O)(Cn1ncnc1S)c1ccc(Cl)cc1 (stereo not shown) [I.A.7, 2-(4-Chloro-phenyl)-3-cyclopentyl-1-(5-mercapto-[1,2,4]triazol-1-yl)-butan-2-ol] | 0% | 20% | –
4 | CC(C1CC1)C(O)(Cn1ncnc1S)c1ccccc1 (stereo not shown) [I.A.4, 2-Phenyl-3-cyclopropyl-1-(5-mercapto-[1,2,4]triazol-1-yl)-butan-2-ol] | 0% | 20% | –
5 | OC(CC1CC1)(Cn1ncnc1S)c1ccc(Cl)cc1 (stereo not shown) [I.A.1, 2-(4-Chloro-phenyl)-3-cyclopropyl-1-(5-mercapto-[1,2,4]triazol-1-yl)-propan-2-ol] | 0% | 20% | –
6 | OC(CC1CC1)(Cn1ncnc1S)c1ccc(Cl)cc1Cl (stereo not shown) [I.A.2, 2-(2,4-Dichloro-phenyl)-3-cyclopropyl-1-(5-mercapto-[1,2,4]triazol-1-yl)-propan-2-ol] | 0% | 20% | –
7 | CC(C1(C)CC1)C(O)(Cn1ncnc1S)c1ccc(Cl)cc1 (stereo not shown) [I.A.6, 2-(4-Chloro-phenyl)-3-(1-methylcyclopropyl)-1-(5-mercapto-[1,2,4]triazol-1-yl)-butan-2-ol] | 0% | 20% | 0%
8 | CC(C1(C)CC1)C(O)(Cn1ncnc1S)c1ccccc1 (stereo not shown) [I.A.9, 2-Phenyl-3-(1-methylcyclopropyl)-1-(5-mercapto-[1,2,4]triazol-1-yl)-butan-2-ol] | 0% | – | –
9 | CC(C1CC1)C(O)(Cn1ncnc1S)c1ccc(Cl)c(Cl)c1 (stereo not shown) [I.A.5, 2-(3,4-Dichloro-phenyl)-3-cyclopropyl-1-(5-mercapto-[1,2,4]triazol-1-yl)-butan-2-ol] | 0% | 20% | –
